Measured values from PubChem BioAssay AID1259332 (Broad Institute, 2017).
Activity calls are given as the source filed them. No rule for the calls is given here.

Test: inhibitors of CD40 signaling, dose response, B cell lineage (AID 1259332);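 also: cells stimulated with CD40 ligand tCD40L; 0% = neutral control wells and -100% = positive control wells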
Conditions: B cell line, CD40 signaling inhibition reporter; at 0.38 µM (top of the series)
For `c1ccc(CCSc2nccn2-c2ccccc2)cc1`, the activity change, negative = inhibition was 36.4% (inactive). With `C[C@H]1CN([C@@H](C)CO)C(=O)c2ccccc2-c2ccccc2CO[C@H]1CN(C)Cc1ccc(Oc2ccccc2)cc1` the activity change, negative = inhibition was 6.67% (inactive). For `O=C1C(=Cc2ccccc2[N+](=O)[O-])Cc2ccccc21`, the activity change, negative = inhibition was 19.6% (inactive).

Same assay, conditions: B cell line, CD40 signaling inhibition reporter; at 1.1 µM (top of the series)
With `O=C(Nc1nc2ccccc2s1)c1ccc(OCC2CCCO2)cc1` (stereo not drawn) the activity change, negative = inhibition was 111% (inactive). With `CO[C@@H](CN(C)S(=O)(=O)c1ccc(Cl)cc1)[C@H](C)CN(Cc1ccccc1Cl)[C@@H](C)CO` the activity change, negative = inhibition was 0.243% (inactive). For `O=C1C(=NO)CCc2ccccc21`, the activity change, negative = inhibition was 21.3% (inactive). For `C[C@@H]1CCCCO[C@@H](CN(C)S(=O)(=O)c2ccc(Cl)cc2)[C@H](C)CN([C@H](C)CO)C(=O)c2cc(NC(=O)Nc3ccc(C(F)(F)F)cc3)ccc2O1`, the activity change, negative = inhibition was 1.11% (inactive). For `CCc1cnc(N2[C@H](C#N)[C@@H](c3ccccc3C3=CCCC3)[C@@H]2CO)s1`, the activity change, negative = inhibition was 18.2% (inactive).

Same assay, conditions: B cell line, CD40 signaling inhibition reporter; at 3 µM (top of the series)
In the case of `O=C(Nc1ccccc1F)N1C[C@@H]2N[C@H](C1)C2c1ccc(/C=C/c2ccccc2)cc1` (stereo partly drawn), the activity change, negative = inhibition is reported as 2.39% (inactive).

Same assay, conditions: B cell line, CD40 signaling inhibition reporter; at 3.5 µM (top of the series)
In the case of `COc1cccc(S(=O)(=O)N(C)C[C@H]2OCc3ccccc3-c3c(n(C)c4ccccc34)C(=O)N([C@@H](C)CO)C[C@H]2C)c1`, the activity change, negative = inhibition is reported as -5.41% (inactive). With `N#C[C@H]1[C@H](c2ccc(C#CC3CCCCC3)cc2)[C@H](CO)N1C(=O)Nc1ccc(F)cc1` the activity change, negative = inhibition was -7.18% (inactive). With `C[C@H](CO)N1C[C@H](C)[C@H](CN(C)CC2CCCCC2)Oc2ccc(NC(=O)Nc3ccc(C(F)(F)F)cc3)cc2C1=O` the activity change, negative = inhibition was 4.59% (inactive). In the case of `O=C1C=CC(=O)C2=C1C1c3ccccc3C2c2ccccc21`, the activity change, negative = inhibition is reported as -3.76% (inactive). With `CCCNC(=O)N1[C@H](CO)[C@H](c2ccc(/C=C/c3ccccc3)cc2)[C@@H]1C#N` the activity change, negative = inhibition was 5% (inactive). For `O=C(Nc1ccc(C(F)(F)F)cc1)Nc1ccc2c(c1)[C@H]1C[C@@H](CC(=O)N3CCc4ccccc4C3)O[C@H](CO)[C@H]1O2`, the activity change, negative = inhibition was 0.714% (inactive). In the case of `C[C@H]1CN([C@@H](C)CO)C(=O)c2c(c3ccccc3n2C)-c2ccccc2CO[C@H]1CN(C)S(=O)(=O)c1ccc([N+](=O)[O-])cc1`, the activity change, negative = inhibition is reported as -3.2% (inactive). In the case of `CCCNC(=O)c1cc2c(c(-c3cccc(-c4cc5ccccc5o4)c3)n1)[C@H](CCO)N(C(=O)NC(C)C)C2`, the activity change, negative = inhibition is reported as 4.19% (inactive). With `COc1ccccc1C(=O)Nc1ccc2c(c1)C(=O)N(C)[C@H]1CC[C@H](CC(=O)Nc3cccc(C(C)C)c3)O[C@@H]1CO2` the activity change, negative = inhibition was 12.5% (inactive). For `CCc1cnc(N2[C@H](C#N)[C@@H](c3ccc(C#CC(C)C)cc3)[C@H]2CO)s1`, the activity change, negative = inhibition was 8.53% (inactive). In the case of `Cc1noc(C)c1NC(=O)N(C)C[C@@H]1OCCCC[C@@H](C)Oc2ccc(NC(=O)Nc3ccc(C(F)(F)F)cc3)cc2C(=O)N([C@H](C)CO)C[C@H]1C`, the activity change, negative = inhibition is reported as -11.7% (inactive). With `N#C[C@@H]1[C@@H](c2ccccc2)[C@H](CO)N1C(=O)CN1CCOCC1` the activity change, negative = inhibition was -5.63% (inactive). With `C[C@@H]1CCCCO[C@@H](CN(C)CC2CCCCC2)[C@@H](C)CN([C@@H](C)CO)C(=O)c2cc(NC(=O)Nc3ccc(C(F)(F)F)cc3)ccc2O1` the activity change, negative = inhibition was -6.41% (inactive). In the case of `COc1ccc(S(=O)(=O)N(C)C[C@@H]2Oc3ccc(NC(=O)Nc4ccc(C(F)(F)F)cc4)cc3C(=O)N([C@H](C)CO)C[C@H]2C)cc1`, the activity change, negative = inhibition is reported as -10.6% (inactive). With `O=C(NCCC(c1ccccc1)c1ccco1)c1cccs1` (stereo not drawn) the activity change, negative = inhibition was 25.6% (inactive). With `C[C@@H]1CN([C@@H](C)CO)C(=O)Cc2cc(NS(=O)(=O)c3ccccc3)ccc2O[C@H]1CN(C)Cc1ccc(Cl)c(Cl)c1` the activity change, negative = inhibition was 0.835% (inactive). For `Cc1ccc(-c2cc(C(=O)N3CC(C)OC(C)C3)c3ccccc3n2)o1` (stereo not drawn), the activity change, negative = inhibition was 26% (inactive). For `CC1=CC(=O)c2ccccc2C1=O`, the activity change, negative = inhibition was 11.2% (inactive).

Same assay, conditions: B cell line, CD40 signaling inhibition reporter; at 10 µM (top of the series)
In the case of `O=C(NCc1ccccn1)C1CCCN(S(=O)(=O)c2ccccc2)C1` (stereo not drawn), the activity change, negative = inhibition is reported as 8.97% (inactive). For `COc1ccc(NC(=O)O/N=C/c2c(C)nn(C(C)(C)C)c2C)cc1`, the activity change, negative = inhibition was 13.9% (inactive). In the case of `CC(C)OC(=O)CC1C(=O)NCCN1C(=S)NC(=O)c1cccs1` (stereo not drawn), the activity change, negative = inhibition is reported as 15.3% (inactive). In the case of `C[C@@H]1CN([C@@H](C)CO)C(=O)c2c(c3ccccc3n2C)-c2ccccc2CO[C@@H]1CN(C)Cc1ccccc1C(F)(F)F`, the activity change, negative = inhibition is reported as 4.94% (inactive). For `Cc1ccc(-c2nn3c(C)nnc3c3ccccc23)cc1S(=O)(=O)NCc1ccccc1`, the activity change, negative = inhibition was 3.44% (inactive). With `CCCC(C)Sc1nc2c([nH]1)c(=S)n(C)c(=O)n2C` (stereo not drawn) the activity change, negative = inhibition was -8.82% (inactive). In the case of `COc1cccc(OC)c1OCCNCC1COc2ccccc2O1` (stereo not drawn), the activity change, negative = inhibition is reported as 18.1% (inactive). In the case of `CCCCC1C(=O)NC(=S)N(C)C1=O` (stereo not drawn), the activity change, negative = inhibition is reported as 11.5% (inactive). In the case of `CC(=O)c1cc(-c2ccccc2)n(CC(=O)NCc2cccs2)c1C`, the activity change, negative = inhibition is reported as -1.07% (inactive). In the case of `Cc1ccc(C(CC(=O)NCc2ccco2)c2ccc(OC(C)C)cc2)cc1` (stereo not drawn), the activity change, negative = inhibition is reported as 3.92% (inactive). For `COc1cccc(S(=O)(=O)N(C)C[C@@H]2OCc3ccccc3-c3c(n(C)c4ccccc34)C(=O)N([C@@H](C)CO)C[C@@H]2C)c1`, the activity change, negative = inhibition was 8.02% (inactive). In the case of `O=C1Cc2c([nH]c3ccc(Br)cc23)-c2ccccc2N1`, the activity change, negative = inhibition is reported as 17.8% (inactive). For `Cc1cc(C)c2c(c1)SC1=NC(c3ccccc3)(C(F)(F)F)NC(=O)N12` (stereo not drawn), the activity change, negative = inhibition was 8.7% (inactive). For `O=C(c1ccc(-c2ccc([N+](=O)[O-])cc2)o1)N1CCCC(C(F)(F)F)C1` (stereo not drawn), the activity change, negative = inhibition was 7.32% (inactive). For `COC(=O)c1ccc2c(=O)[nH]c(COC(=O)c3c(-c4ccccc4)noc3C)nc2c1`, the activity change, negative = inhibition was 7.81% (inactive). With `Cc1ccc(C2(C)NC(=O)N(CC(=O)Nc3cccnc3Cl)C2=O)cc1` (stereo not drawn) the activity change, negative = inhibition was -2.81% (inactive). In the case of `Oc1cc(O)cc(/C=C/c2ccc(O)c(O)c2)c1`, the activity change, negative = inhibition is reported as -10.7% (inactive). In the case of `CCc1cc2c(=O)c(-c3ccc4c(c3)OCCO4)coc2c(CN2CCCCC2C)c1O` (stereo not drawn), the activity change, negative = inhibition is reported as 1.98% (inactive). With `C=C1C(=O)OC2C=C(CO)CCC=C(CO)CC(OC(=O)C(C)C)C12` (stereo not drawn) the activity change, negative = inhibition was 14% (inactive). With `CC(=O)Nc1nc2nc(-c3ccccc3)cc(-c3ccccc3)n2n1` the activity change, negative = inhibition was 6.86% (inactive). With `OC1(c2ccc(Cl)c(C(F)(F)F)c2)CCN(CCCC(c2ccc(F)cc2)c2ccc(F)cc2)CC1` the activity change, negative = inhibition was 3.82% (inactive). For `COc1ccc2c3c(n(C)c2c1)[C@H](CO)N(C(=O)Nc1ccc(F)cc1)CC31CCN(C(=O)c2ccc3c(c2)OCO3)CC1`, the activity change, negative = inhibition was 7.94% (inactive). With `NS(=O)(=O)c1nn2cc(-c3ccccc3)nc2s1` the activity change, negative = inhibition was -27.6% (inactive). For `Cc1cc(C(=O)COC(=O)c2cccn2C)c(C)n1Cc1ccco1`, the activity change, negative = inhibition was -4.27% (inactive). For `CCSc1ccc(-c2cc(NC=O)c3ncc(-c4cccc(C(=O)N(C)C)c4)n3c2)cc1`, the activity change, negative = inhibition was 21.6% (inactive). With `CCN(CC(=O)Nc1ccc(NC(C)=O)cc1)C(=O)C1CCCN(C(=O)c2ccc(Cl)cc2)C1` (stereo not drawn) the activity change, negative = inhibition was 0.336% (inactive).
